Results on two compounds are retold here after patent publication US20210113499A1, “CERAMIDE MIMICS FOR TREATMENT OF ALZHEIMER'S DISEASE” (University of Kentucky Research Foundation, priority 2019, published 2021).

In this experiment the test system is 5×FAD exosomes (Aβ-associated astrosomes). Kind of experiment: Incubation of serum exosomes with ceramide analogs or anti-ceramide IgG; vesicle size by nanoparticle tracking analysis (ZetaView). The format is biochemical, mouse. The following applies: for Vesicle size reduced: 5×FAD serum exosomes incubated at 37° C. for 16 h with 50 μM ceramide analog, NTA. The protocol: Sera were isolated from freshly obtained mouse blood. Blood was drawn through heart puncture and was allowed to clot at room temperature for 30 min. Blood was then centrifuged at 1,800×g for 10 min at 4° C. The clear upper layer was transferred to a fresh tube and centrifuged at 3,000×g for 15 min to pellet residual blood cells. Exosomes were extracted using ExoQuick exosome solution (EXOQ; System Biosciences, Inc., Mountain View, Calif., USA) according to the manufacturer protocol. Briefly, one-fourth milliliter aliquots of serum was treated with 67 μl of ExoQuick exosome solution, followed by incubation for 60 min at 4° C. to precipitate total exosomes. Tubes were then centrifuged at 1,500×g for 30 min. Each exosome pellet was resuspended in 100 μl of PBS with 1× Halt™ Protease Inhibitor Cocktail (Thermo Fisher, Massachusetts, USA). In certain experiments exosomes were labeled with PKH67 Green Fluorescent Dye. The exosomes were labeled with PKH67 Green Fluorescent Cell Linker Kit for General Cell Membrane Labelling (Sigma-Aldrich) according to the manufacturer's protocol. Briefly, ExoQuick pellets were resuspended in PBS, 1 ml of Diluent C (CGLDIL, Sigma-Aldrich) was then added to each sample. As a control, 1 ml of Diluent C after adding the same volume of PBS was used. Next, 4 μl of PKH67 dye was added to 1 ml of Diluent C then mixed with the exosomes and the control, PKH67/Diluent C mixture was ultra-centrifuged before being added to samples. The samples were allowed to incubate <5 min on a rotor plate. One ml of 1% BSA was then added to bind excess dye. Samples were ultra-centrifuged at 110,000×g for 70 min, washed and centrifuged again. For exosomes quantification, nanoparticle tracking analysis (NTA) with the ZetaView PMX110 (Particle Metrix) was used. Briefly, exosomes were resuspended in PBS. Two ml of appropriately diluted samples were injected into the ZetaView cell. The instrument was set to obtain NTA measurements at 11 positions, two cycles at each position. […]

Molecules are shown by their SMILES.

For `CCCCCCCCCCCCCCCC(=O)N(CCO)CCO` [B16, N-palmitoyl bisethanolamine], the Vesicle size reduced entry is “not”.

The compound `CCCCCCCC/C=C\CCCCCCCC(=O)NC(CO)CO` [S18, N-oleoyl serinol] yielded a Vesicle size reduced of 17%. In addition, the “Aggregates formed by 5×FAD serum astrosomes associated with Aβ (size distribution, FIG. 2D)” value (5×FAD exosomes treated with ceramide analog, particle diameter by NTA) is given as “reduced”.
